Results from patent US8614200B2, “Compounds, compositions and methods for treating ocular conditions” (Chimerix, Inc., priority 2009, dated 2013).

Key:
Type in all cases: cell-based
CMV = assay: in vitro antiviral activity against CMV; conditions: for EC50: Human betaherpesvirus 5, CMV, in vitro
EBV = assay: in vitro antiviral activity against EBV
HHV-6 = assay: in vitro antiviral activity against HHV-6; conditions: for EC50: HHV-6, in vitro
HSV-1 = assay: in vitro antiviral activity against HSV-1; conditions: CMX001 versus cidofovir EC50, HSV-1
VZV = assay: in vitro antiviral activity against VZV

Row | Structure (SMILES) | Enhanced Activity (CMV; CMX001 versus cidofovir EC50, CMV) | EC50 (CMV) [nM] | Enhanced Activity (EBV; CMX001 versus cidofovir EC50, EBV) | Enhanced Activity (HHV-6; CMX001 versus cidofovir EC50, HHV-6) | EC50 (HHV-6) [nM] | Enhanced Activity (HSV-1) | Enhanced Activity (VZV; CMX001 versus cidofovir EC50, VZV) | EC50 (EBV; human gammaherpesvirus 4, EBV, in vitro) [nM] | EC50 (VZV; Human alphaherpesvirus 3, VZV, in vitro) [nM]
1 | CCCCCCCCCCCCCCCCOCCCOP(=O)(O)CO[C@H](CO)Cn1ccc(N)nc1=O [CMX001] | 400 | 1 | >2700 | 771 | 7 | 92 | 125 | – | –
2 | Nc1ccn(C[C@@H](CO)OCP(=O)(O)O)c(=O)n1 [Cidofovir, cidofovir, reference compound] | – | 400 | – | – | 5400 | – | – | > 108000 | 500
